Experimental data published in patent publication US20060040338A1, “Pharmacological profiling of drugs with cell-based assays” (Odyssey Thera, Inc., priority 2004, published 2006).
Entries after “also recorded” stand apart in the source; their conditions may differ.

Assays:
Type in all cases: cell-based, human
phospho-ERK = phospho-ERK (T202/Y204) immunofluorescence high-content assay; conditions: HEK293T cells; for effect on EGF-stimulated ERK phosphorylation: drug 90 min (PD98059 20 micromolar, SB203580 25 micromolar, 17-AAG 5 microM), 100 ng/ml hEGF during last 5 min; for ERK/MAP kinase phosphorylation, agent alone: isoproterenol 2 micromolar or forskolin 1 micromolar 15 min, anisomycin 10 micrograms/ml 10 min, hEGF 100 ng/ml 5 min
Description: (§1) We assessed the effects of the above-mentioned compounds on the three pathways and used the results to construct pharmacological profiles for the agents. Specifically we assessed changes in the phosphorylation status of the pathway ‘sentinels’ by constructing high-content, immunofluorescence assays using phospho-specific antibodies targeted to the downstream proteins in the pathways of interest. Human cells (HEK293) were treated with drugs and the phosphorylation status of the three downstream proteins was assessed in the absence or presence of epidermal growth factor (EGF). Cells were then fixed and probed with antisera generated against the phosphorylated forms of CREB (S133), ERK1/2 (phospho T*EY*), or phospho Hsp27 (S78/S82). The ERK1/2 antibodies specifically recognize the MAPK/ERK1 and MAPK/ERK2 protein kinases only when they are phosphorylated on Threonine 202 and Tyrosine 204 in the activation loop. […] Changes in the level and sub-cellular localization of a phosphorylated protein following treatment with a drug would indicate a functional connection between the drug and the pathway of interest.
(§2) Details of the methods used are as follows. HEK293T cells were seeded in black-walled, poly-lysine coated 96-well plates (Greiner) at a density of 30,000/well. After 24 hours, cells in duplicate wells were treated with combinations of different drugs and stimulus as follows: (a) 2 micromolar isoproterenol or 1 micromolar forskolin for 15 min.; (b) 25 micromolar SB203580 or vehicle (DMSO) for 90 minutes and 10 micrograms/ml anisomycin added to the cells during the last 10 min.; (c) 20 microolar PD98059, 25 micromolar SB203580, 5 microM 17-AAG or vehicle alone for 90 min. (d) as for (c), but with 100 ng/ml hEGF added to the cells during the last 5 min of drug treatment. The drugs were purchased from Calbiochem and hEGF was from Roche. Four sets of cells treated as described were prepared. The cells were rinsed once with PBS and fixed with 4% formaldehyde for 10 min. The cells were subsequently permeabilized with 0.25% Triton X-100 in PBS and incubated with 3% BSA for 30 min to block non-specific antibody binding. Each of the 4 sets of identically treated cells were then incubated with rabbit antibodies against phosphorylated CREB (Ser133), Hsp27 (Ser82), or pERK (T202/Y204) (Cell Signaling Technology, Inc.). Control wells were incubated with bovine serum albumin (BSA) in PBS. The cells were rinsed with PBS and incubated with Alexa488 conjugated goat anti-rabbit secondary antibody (Molecular Probes). Cell nuclei were stained with Hoechst33342 (Molecular Probes).
(§3) Images were acquired using Discovery-1 High Content Imaging System (Molecular Devices). Background fluorescence due to nonspecific binding by the secondary antibody was established with the use of cells that were incubated with BSA/PBS and without primary antibodies.
(§4) Raw images in 16-bit grayscale TIFF format were analyzed using ImageJ API/library (http://rsb.info.nih.gov/ij/, NIH, MD). First, images from the fluorescence channels (Hoechst and Alexa 488) were normalized using the ImageJ built-in rolling-ball algorithm [S. R. Sternberg, Biomedical image processing. Computer, 16(1), January 1983]. Next a threshold was established to separate the foreground from background. An iterative algorithm based on Particle Analyzer from ImageJ is applied to the thresholded Hoechst channel image (HI) to obtain the total cell count. The nuclear region of a cell (nuclear mask) is also derived from the thresholded HI. The positive particle mask is generated from the thresholded Alexa 488 image (YI). To calculate the global background (gBG), a histogram was obtained from the un-thresholded Alexa signal and the pixel intensity of the lowest intensity peak was identified as gBG. The Hoechst mask and Alexa mask are overlapped to define the correlated sub-regions of the cell. All means were corrected for the corresponding gBG. […]

phospho-CREB = phospho-CREB (S133) immunofluorescence high-content assay; conditions: HEK293T cells; for phosphorylation of CREB (phospho-CREB intensity), agent alone / subcellular distribution of phospho-CREB: isoproterenol 2 micromolar or forskolin 1 micromolar 15 min, anisomycin 10 micrograms/ml 10 min, relative to untreated control; for phosphorylation of CREB (phospho-CREB intensity), agent alone: hEGF 100 ng/ml 5 min
Description: as §1, §2, §3, §4

phospho-Hsp27 = phospho-Hsp27 immunofluorescence high-content assay; conditions: HEK293T cells; for effect on EGF-induced Hsp27 phosphorylation: drug 90 min (PD98059 20 micromolar, SB203580 25 micromolar), 100 ng/ml hEGF during last 5 min; for Hsp27 phosphorylation (p38 pathway), agent alone: anisomycin 10 micrograms/ml 10 min, hEGF 100 ng/ml 5 min
Description: as §1, §2, §3
Raw images in 16-bit grayscale TIFF format were analyzed using ImageJ API/library (http://rsb.info.nih.gov/ij/, NIH, MD). First, images from the fluorescence channels (Hoechst and Alexa 488) were normalized using the ImageJ built-in rolling-ball algorithm [S. R. Sternberg, Biomedical image processing. Computer, 16(1), January 1983]. Next a threshold was established to separate the foreground from background. An iterative algorithm based on Particle Analyzer from ImageJ is applied to the thresholded Hoechst channel image (HI) to obtain the total cell count. The nuclear region of a cell (nuclear mask) is also derived from the thresholded HI. […]

Compound	effect on EGF-stimulated ERK phosphorylation (phospho-ERK)	effect on EGF-induced phospho-CREB (phospho-CREB; drug 90 min (PD98059 20 micromolar), 100 ng/ml hEGF during last 5 min)	effect on EGF-induced Hsp27 phosphorylation (phospho-Hsp27)	effect on anisomycin-induced phospho-Hsp27 (phospho-Hsp27; SB203580 25 micromolar 90 min, 10 micrograms/ml anisomycin during last 10 min)	phosphorylation of CREB (phospho-CREB intensity), agent alone (phospho-CREB)	subcellular distribution of phospho-CREB (phospho-CREB)	ERK/MAP kinase phosphorylation, agent alone (phospho-ERK)	Hsp27 phosphorylation (p38 pathway), agent alone (phospho-Hsp27)
C=CCNC1=C2C[C@@H](C)C[C@H](OC)[C@H](O)[C@@H](C)/C=C(\C)[C@H](OC(N)=O)[C@@H](OC)/C=C\C=C(/C)C(=O)NC(=CC1=O)C2=O [17-AAG, 17-allylamino-17-demethoxygeldanamycin]	effective at reducing							
COc1cccc(-c2cc(=O)c3ccccc3o2)c1N [PD98059]	significantly blocked	reduced	no effect					
C[S+]([O-])c1ccc(-c2nc(-c3ccc(F)cc3)c(-c3ccncc3)[nH]2)cc1 (centres unmarked) [SB203580, 4-(4-fluorophenyl)-2-(4-methylsulfinylphenyl)-5-(4-pyridyl)1H-imidazole]	no effect		blocked	completely blocked				
COc1ccc(C[C@H]2NC[C@H](O)[C@H]2OC(C)=O)cc1 [anisomycin]					little or no effect; also recorded: no effect	little or no effect	no effect	induced
CC(C)NCC(O)c1ccc(O)c(O)c1 (centres unmarked) [isoproterenol]					increased	predominantly nuclear pattern	no effects	
EGF: epidermal growth factor; hEGF from Roche, used as pathway stimulus					induced		strongly stimulated	elicited p38 pathway activation
